Data on 23 molecules can be found in ChEMBL document CHEMBL1144235, “Aminostyrylbenzofuran derivatives as potent inhibitors for Abeta fibril formation” (Bioorg Med Chem Lett, 2008).

As usually defined, the IC50 is the concentration at which inhibition is half-maximal. A higher IC50 goes with weaker potency.

Structures are written as SMILES.

The target in the assay is Amyloid-beta precursor protein (Homo sapiens, UniProt P05067). Kind of assay: Inhibition of amyloid beta42 fibril formation by thioflavin T formation.
Chain of Amyloid-beta precursor protein (P05067 whole entry): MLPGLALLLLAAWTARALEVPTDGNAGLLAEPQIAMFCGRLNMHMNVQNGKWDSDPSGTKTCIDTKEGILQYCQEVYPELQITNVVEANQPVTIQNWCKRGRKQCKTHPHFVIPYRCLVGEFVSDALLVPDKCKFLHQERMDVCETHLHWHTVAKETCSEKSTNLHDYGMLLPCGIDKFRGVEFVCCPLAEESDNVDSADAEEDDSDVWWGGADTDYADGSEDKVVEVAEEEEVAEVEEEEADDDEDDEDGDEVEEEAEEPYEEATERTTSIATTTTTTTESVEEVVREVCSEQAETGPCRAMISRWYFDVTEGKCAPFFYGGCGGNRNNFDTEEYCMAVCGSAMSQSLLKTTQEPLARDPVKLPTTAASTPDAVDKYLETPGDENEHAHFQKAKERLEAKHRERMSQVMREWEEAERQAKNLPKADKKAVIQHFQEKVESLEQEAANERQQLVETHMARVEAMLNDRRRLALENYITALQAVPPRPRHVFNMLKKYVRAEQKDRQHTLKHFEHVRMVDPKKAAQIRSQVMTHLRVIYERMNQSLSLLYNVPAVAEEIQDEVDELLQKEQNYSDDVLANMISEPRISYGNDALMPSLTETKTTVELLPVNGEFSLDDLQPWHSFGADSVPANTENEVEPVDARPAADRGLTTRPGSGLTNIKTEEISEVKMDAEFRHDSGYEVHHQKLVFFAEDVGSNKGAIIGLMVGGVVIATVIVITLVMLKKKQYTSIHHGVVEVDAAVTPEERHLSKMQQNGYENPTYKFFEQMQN
In turn, `CN(C)c1ccc(/C=C/c2cc3ccc(O)cc3o2)cc1` returned an IC50 of 3620 nM.
Take `Nc1ccc(/C=C/c2cc3cc(O)ccc3o2)cc1`: it took 2950 nM to reach half-maximal inhibition (IC50).
`CN(C)c1ccc(/C=C/c2cc3cc(Cl)ccc3o2)cc1` yielded an IC50 of 200 nM.
In turn, `COc1ccc2oc(/C=C/c3ccc(N(C)C)c(OC)c3)cc2c1` gave an IC50 of 160 nM.
To `CN(C)c1ccc(/C=C/c2cc3cc(F)ccc3o2)cc1` belongs 1980 nM; to `CN(C)c1ccc(/C=C/c2cc3cc(Br)ccc3o2)cc1`, 470 nM; to `CNc1ccc(/C=C/c2cc3ccc(OC)cc3o2)cc1`, 800 nM.
To `CN(C)c1ccc(/C=C/c2cc3ccc(Cl)cc3o2)cc1` belongs 3210 nM.
To `CN(C)c1ccc(/C=C/c2cc3ccc(Br)cc3o2)cc1` belongs 1340 nM; to `COc1ccc2cc(/C=C/c3ccc(N)cc3)oc2c1`, 5440 nM; to `CNc1ccc(/C=C/c2cc3cc(O)ccc3o2)cc1`, 2160 nM.
Take `CN(C)c1ccc(/C=C/c2cc3cc(O)ccc3o2)cc1`: half-maximal inhibition (IC50) was put at 160 nM.
`Cc1ccc2cc(/C=C/c3ccc(N(C)C)cc3)oc2c1` registered an IC50 of 3440 nM.
As to `CN(C)c1ccc(/C=C/c2cc3ccc(F)cc3o2)cc1`, the IC50 is 2190 nM.
To `CN(C)c1ccc(/C=C/c2cc3ccc(I)cc3o2)cc1` belongs 2800 nM.
For the molecule `COc1ccc2oc(/C=C/c3ccc(N)cc3)cc2c1`, the IC50 turned out to be 820 nM.
The value for `CN(C)c1ccc(/C=C/c2cc3ccccc3o2)cc1` was 2300 nM; that for `COc1ccc2oc(/C=C/c3ccc(N(C)C)cc3)cc2c1` was 810 nM; that for `Cc1ccc2oc(/C=C/c3ccc(N(C)C)cc3)cc2c1` was 130 nM.
The value for `COc1ccc2cc(/C=C/c3ccc(N(C)C)c(OC)c3)oc2c1` was 530 nM.
As for `CNc1ccc(/C=C/c2cc3cc(OC)ccc3o2)cc1`, inhibition was half-maximal at 80 nM (IC50).
The value for `CN(C)c1ccc(/C=C/c2cc3cc(I)ccc3o2)cc1` was 170 nM.
To `COc1ccc2cc(/C=C/c3ccc(N(C)C)cc3)oc2c1` belongs 70 nM.
